Test results as given in PMC12124858, “Thymoquinone loaded on chitosan nanoparticles alleviated the consequences of cryptosporidiosis infection in a murine model: Evidence from parasitological, histopathological, immunohistochemical, and immunological studies” (PLOS One, 2025).
Marks after values point to notes of the source that are not given here.

How the values were obtained:
Cryptosporidium parvum [1] = assay: Histopathological examination and scores of the intestine (H&E); format: in vivo, Swiss albino mice; details: 21 dpi; for Intestinal histopathological findings: H&E, in words
Method: At 21 dpi, the mice were humanely euthanized under light anesthesia induced by isoflurane inhalation (Forane®, Baxter, UK). Representative tissue specimens from all animals’ intestines, livers, and spleens were carefully collected and fixed in a 10% neutral buffered formalin solution for 48 hours. Following fixation, the tissues were dehydrated through a graded series of ethyl alcohol concentrations, cleared in xylene, and subsequently embedded in paraffin wax. Two sections, each 5 µm thick, were obtained from each tissue specimen. The sections were then deparaffinized in xylene and rehydrated through a descending series of alcohol concentrations. After rehydration, the tissue sections were mounted onto histological slides and stained with hematoxylin and eosin (H&E) for microscopic examination. The prepared slides were thoroughly analyzed under a light microscope to identify pathological alterations and evaluate the administered drug’s potential ameliorative effects. This standardized protocol ensured accurate and consistent histological assessment across all samples [39]. Histopathological scores for intestine: H&E-stained tissue sections of the intestine were evaluated in a blinded manner by assessing specific histological parameters, including mononuclear cell infiltration in the lamina propria, crypt hyperplasia, depletion or hyperplasia of goblet cells, and alterations in mucosal histoarchitecture. A systematic scoring approach was employed to quantify these histological changes. Histological alterations were counted in 50 randomly selected microscopic fields (captured images; 40 × objective) from each mouse within each experimental group. This method ensured a comprehensive and unbiased assessment of intestinal pathology across all samples [40].

Cryptosporidium parvum [2] = assay: Histopathological examination of the liver (H&E); format: in vivo, Swiss albino mice; details: 21 dpi, in words
Method: At 21 dpi, the mice were humanely euthanized under light anesthesia induced by isoflurane inhalation (Forane®, Baxter, UK). Representative tissue specimens from all animals’ intestines, livers, and spleens were carefully collected and fixed in a 10% neutral buffered formalin solution for 48 hours. Following fixation, the tissues were dehydrated through a graded series of ethyl alcohol concentrations, cleared in xylene, and subsequently embedded in paraffin wax. Two sections, each 5 µm thick, were obtained from each tissue specimen. The sections were then deparaffinized in xylene and rehydrated through a descending series of alcohol concentrations. After rehydration, the tissue sections were mounted onto histological slides and stained with hematoxylin and eosin (H&E) for microscopic examination. The prepared slides were thoroughly analyzed under a light microscope to identify pathological alterations and evaluate the administered drug’s potential ameliorative effects. This standardized protocol ensured accurate and consistent histological assessment across all samples [39].

cyclin D1 = assay: Immunohistochemical staining of cyclin D1 in the intestine; format: in vivo, Swiss albino mice; details: 21 dpi, in words
Method: Immunohistochemical examination for detecting intestinal dysplasia using cyclin D1 marker: Three to five-micrometer intestinal tissue sections were deparaffinized using xylene and rehydrated using varying degrees of alcohol. Next, peroxidase activity was blocked using 3% hydrogen peroxide. The Dako target retrieval solution (pH 6.0) was applied for twenty minutes. The sections were treated for one hour with the primary antibody (Anti-Cyclin D1 antibody [SP4], ab 16663, Abcam, UK, diluted 1/100 in PBS). Antibody binding was identified using Dako’s HRP Envision Kit (Dako Cytomation, Denmark).

IL-10 = assay: Serum IL-10 by ELISA; format: in vivo, Swiss albino mice
Method: Immunological measurements: Interleukin-10 (IL-10) and interferon-gamma (IFN-γ) levels in mouse sera were measured. Blood samples were collected in plain tubes from the mice’s retroorbital veins at the indicated time points (14 dpi and 21 dpi). After 30 minutes at room temperature and 15 minutes of centrifugation at 3000 rpm, sera were collected and stored at −20°C. Using an ELISA kit and following the manufacturer’s instructions, the enzyme-linked immunosorbent assay (ELISA) was employed to measure the levels of IFN-γ and IL-10 in the serum (Bioneovan Co.; Ltd, Beijing, China).

[3] = Pharmacokinetic study after oral administration; format: in vivo, Wistar albino rats; details: rats, oral 20 mg/kg; for AUC(0-t): read-out: AUC₀ → 24; for half-life: read-out: T1/₂ (converted)
Method: All groups received an oral dose of 20 mg/kg of their respective formulations. Blood samples (500 μL) were collected from the ocular vein into heparinized tubes at intervals of 0.5, 1, 2, 4, 6, 8, 12, and 24 hours post-administration. The samples were centrifuged at 10,000 rpm for 5 min to isolate plasma stored at −20°C. Plasma samples were deproteinized by adding 1 mL of acetonitrile to each sample, followed by vortexing for 10 min and centrifugation at 6,000 rpm for another 10 min. […] Pharmacokinetic parameters such as peak plasma concentration (Cmax), time to reach peak concentration (Tmax), mean residence time (MRT), area under the curve (AUC), elimination rate constant (Kel), and plasma half-life (t1/2) were calculated using PK Solver 2.0 software through non-compartmental analysis.

[4] = Wistar albino, rat, plasma, n = 6

| SMILES | Intestinal histopathological findings (Cryptosporidium parvum [1]) | Morphometric indices: Villus width (Cryptosporidium parvum [1]; intestine) | Lesion frequency: Epithelial necrosis (Cryptosporidium parvum [1]; intestine, mean ± SE) | Lesion frequency: Goblet cell hyperplasia (Cryptosporidium parvum [1]; intestine, mean ± SE) | Lesion frequency: Mucosal erosion (Cryptosporidium parvum [1]; intestine, mean ± SE) | Lesion frequency: Mucosal ulceration (Cryptosporidium parvum [1]; intestine, mean ± SE) | Lesion frequency: Mucosal-associated lymphocyte hyperplasia (Cryptosporidium parvum [1]; intestine, mean ± SE) | Lesion frequency: Vascular congestion (Cryptosporidium parvum [1]; intestine, mean ± SE) | Lesion frequency: Villus atrophy (Cryptosporidium parvum [1]; intestine, mean ± SE) | Lesion frequency: Villus fusion (Cryptosporidium parvum [1]; intestine, mean ± SE) | Morphometric indices: Thickness of lamina propria (Cryptosporidium parvum [1]; intestine, mean ± SE) | Morphometric indices: Thickness of muscular layer per image (Cryptosporidium parvum [1]; intestine, mean ± SE) | Morphometric indices: Villus height (Cryptosporidium parvum [1]; intestine, mean ± SE) | Morphometric indices: Villus surface area (Cryptosporidium parvum [1]; intestine, mean ± SE) | Liver histopathological findings (Cryptosporidium parvum [2]) | cyclin D1 immunostaining of the intestine (cyclin D1) | IL-10 serum level, Mean ± SE (IL-10; 14 days post-infection) | IL-10 serum level, Mean ± SE (IL-10; 21 days post-infection) | concentration at 0.5 h ([3]; Wistar albino, rat, plasma) | concentration at 12 h ([3]; Wistar albino, rat, plasma) | other results |
| --- | --- | --- | --- | --- | --- | --- | --- | --- | --- | --- | --- | --- | --- | --- | --- | --- | --- | --- | --- | --- | --- |
| CC1=CC(=O)C(C(C)C)=CC1=O [THQ, 2-isopropyl-5-methyl-1,4-benzoquinone] | greater improvement than the NTZ-treated group | 91.4^A | 7.5 ± 0.43^B | 20.67 ± 0.49^BC | 14.83 ± 0.65^B | 8.83 ± 0.48^B | 22 ± 0.68^C | 18.5 ± 0.85^B | 9.83 ± 0.87^B | 4.83 ± 0.17^B | 170.33 ± 1.15^BC | 64.35 ± 0.2^C | 302 ± 2.35^C | 27975.53 ± 357.01^C | partial improvement | Moderate immunostaining | 18.5 ± 0.6^bc | 33.3 ± 0.4 ^bc | 9790 ± 3250 ng/mL | 4880 ± 1790 ng/mL | Morphometric indices: Crypt depth (Cryptosporidium parvum [1]; intestine, mean ± SE): 79.7 ± 0.22^AB; concentration at 24 h ([3]; Wistar albino, rat, plasma): 4190 ± 1580 ng/mL; AUC [3, 4]: 340 ± 13.6 µg·h/mL; AUC(0-inf) [3, 4]: 630 ± 22.1 µg·h/mL; Cmax [3, 4]: 43600 ± 7920 ng/mL; MRT [3, 4]: 6.97 ± 1.32 h; Tmax [3, 4]: 4 h; AUC(0-t) [3, 4]: 316 ± 12.5 µg·h/mL; half-life [3, 4]: 53.2 ± 4.88 h; Kel ([3]; n = 6): 0.013 ± 0.0012 h˦ ¹ |
| CC(=O)Oc1ccccc1C(=O)Nc1ncc([N+](=O)[O-])s1 [NTZ, nitazoxanide, reference compound] | persistent villous atrophy and mild improvement in histopathological alterations | 91.2^A | 9 ± 0.58^B | 21.5 ± 0.76^B | 16 ± 0.58^B | 9.83 ± 0.6^B | 21 ± 0.58^C | 21 ± 0.97^B | 10 ± 0.58^B | 5.17 ± 0.31^B | 174.33 ± 1.05^B | 65.87 ± 0.59^BC | 298.67 ± 2.4^C | 27609.37 ± 307.03^C | partial improvement | Moderate immunostaining | 16.9 ± 0.6 cd | 30.9 ± 0.3 ^c | 24900 ± 9110 ng/mL | 4160 ± 2710 ng/mL | concentration at 24 h ([3]; Wistar albino, rat, plasma): 1390 ± 890 ng/mL; AUC [3, 4]: 1440 ± 49.4 µg·h/mL; AUC(0-inf) [3, 4]: 1470 ± 52.3 µg·h/mL; Cmax [3, 4]: 53200 ± 4950 ng/mL; Tmax [3, 4]: 2 h; AUC(0-t) [3, 4]: 1440 ± 48.7 µg·h/mL; half-life [3, 4]: 6.55 ± 0.54 h; Kel ([3]; n = 6): 0.105 ± 0.0087 h˦ ¹ |
